Assay results taken from patent US7528175B2, “Method of treating airway diseases with beta-adrenergic inverse agonists” (Inverseon, Inc., priority 2005, dated 2009).
Several values for one entry are separate records, joined by “and”; a condition that tells them apart may be missing. Identical values can stand only once. Entries after “also recorded” stand apart in the source; their conditions may differ. Like-named read-outs stand apart in the source and are kept apart here.

How the values were obtained:
[1] = system: β2-adrenergic receptor; assay: Immunohistochemistry of β2-adrenergic receptor levels in lungs; assay type: in vivo, mice; conditions: chronic treatment vs untreated animals
Protocol: The mice were sacrificed and the lungs excised. […] Lungs were embedded in OCT and 12-μm sections cut with a Tissue-Tek II cryostat. […] After 3 washes in PBS, the slides were blocked with 5% milk in PBS for 1 h, and then incubated overnight with anti-β2-adrenergic receptor antibody (1:200, Santa Cruz Biotechnology) in blocking solution. Slides were washed in PBS and incubated with secondary antibody (1:200, Cy3 goat anti-rabbit, 16 h at 4° C.). […] After washing with PBS, coverslips were mounted and viewed by epifluorescent microscopy.

[2] = system: asthmatic mice; assay: Airway resistance (Raw) response to methacholine in murine model of asthma (forced oscillation); assay type: in vivo, Balb/cJ mice
Protocol: Balb/cJ mice aged 6 weeks (Jackson Animal Laboratory, Bar Harbor, Me.) were housed under specific pathogen-free conditions and fed a chicken ovalbumin-free diet. The Animal Research Ethics Boards of both the University of Houston and the Baylor College of Medicine approved all experiments reported here. […] Mice were sensitized with subcutaneous injection of 25 μg of ovalbumin adsorbed to aluminum hydroxide on protocol days 2, 9, and 16. Subsequently, mice were given 50 μL of saline solution containing 25 μg of ovalbumin intranasally, on a daily basis, from protocol days 23 through 27. A group of ovalbumin-sensitized saline-challenged mice serves as controls for systemic sensitization and respiratory challenges with ovalbumin. Prior to intranasal administrations, mice were sedated with halothane vapor.
To examine the effects of duration of β-adrenergic ligand therapy on the phenotype of the murine model of asthma, the experimental drugs were administered either acutely or chronically to different groups of asthmatic mice.
Asthmatic mice on acute therapy were given a single intravenous bolus infusion of either β-adrenergic drug or normal saline on protocol day 28, 15 minutes before airway responsiveness to methacholine was determined. […] […] […] These concentrations were chosen based on those producing therapeutic effects in mice in previously published studies. The non-asthmatic mice were fed normal chow.
On protocol day 28, mice were anesthetized, tracheotomized, and connected to a computer-controlled small animal ventilator (Flexivent, Scientific Respiratory Equipment, Inc., Montreal, Canada). Airway resistance (Raw) was measured using the forced oscillation technique. The cellular composition of bronchoalveolar lavage fluid (BALF) was also determined.
To induce airway constriction, a solution containing 150 μg/mL of acetyl-α-methylcholine chloride (methacholine) (Sigma Chemical, St. Louis, Mo.) was infused intravenously at constant rates using a syringe infusion pump (Raze Scientific Instruments, Stanford, Conn.). […] Each methacholine dose was administered for 3 to 5 minutes, during which data were sampled at 1-minute intervals and then averaged.
The complex input impedance of the respiratory system was computed and the value of the real part of respiratory system impedance at 19.75 Hz was taken to reflect the magnitude of airway resistance (Raw). To examine the degree of airway responsiveness of each animal, the values for Raw as a function of methacholine doses were plotted. The largest value for Raw achieved in response to methacholine stimulation was referred to as Rawpeak. For mice that achieved a plateau in the methacholine dose-Raw response curve, the ED50 was calculated by linear interpolation using the GraphPad Prism4 (GraphPad Software, Inc.). […] The Bonferroni test was used to examine the statistical differences between experimental groups. The effects of acute drug treatments on baseline respiratory system mechanics were assessed using a two-tailed paired t-test. A value of P<0.05 was considered significant.
For these experiments, salbutamol was used for chronic administration at 0.5 mg/kg/day with a minipump and for acute administration at 0.15 mg/kg by i.v. bolus 15 minutes prior to challenge. Alprenolol was used at a high dose of 7200 ppm in chow or at a low dose of 720 ppm in chow. Carvedilol was used at a high dose of 2400 ppm in chow or at a low dose of 720 ppm in chow.

[3] = system: asthmatic mice; conditions: Callaerts-Vegh et al. 2004, cited from earlier work
[4] = system: adults with mild asthma
Source text: (§1) Study Design: The study is an open-label Phase IIa, proof of principle, 11-week, dose escalation study in mild asthma. Up to twelve subjects with mild asthma, not taking inhaled corticosteroids or other controller medications are to be recruited from a single clinical research center. […] Combivent rescue medication was provided to subjects during the run-in period to replace their own rescue medication which typically is Albuterol (salbutamol a beta 2 partial agonist).
(§2) The subjects are maintained at their maximum tolerated dose for a minimum of 4 weeks.
(§3) All the following criteria had to be met for dose escalation otherwise the dose was kept at maintenance level (same dose), reduced to previous lower tolerated dose or the subject was terminated from the study.
(§4) Data collected at baseline and during study visits include lung function (spirometry—FEV1 and daily peak flow rates —PEFR), asthma symptoms via dairy cards), heart rate and blood pressure. In addition, airway hyper-responsiveness (methacholine challenge test—PC20) and Asthma Control Questionaire (Juniper ACQ) will be performed. Blood is collected to monitor beta adrenergic receptor levels in lymphocytes and baseline laboratory evaluation.

[5] = system: adults with mild asthma; assay: Phase IIa clinical trial of chronic oral nadolol, tolerability and cardiovascular function; conditions: for Heart rate at 4 hrs after administration of dose: subject 003, 80 mg
Source text: as §1, §2, §3, §4

[6] = system: ovalbumin-sensitized, allergen-challenged mice; assay: Acute nadolol and aminophylline, methacholine-induced bronchoconstriction; assay type: in vivo; conditions: nadolol 0.72 mg/kg i.p. 15 minutes prior to methacholine
Protocol: At time point 1 (time=−10 min) baseline airway resistance of the mice was determined.

CC(C)(C)NCC(O)COc1cccc2c1CC(O)C(O)C2 (stereo not drawn) [nadolol]
labeling with anti-β2-adrenergic receptor antibodies in lungs [1]: considerably more intense | airway resistance (Raw) ([2]; 1 ppm in chow): identical to the untreated mice | Decreased Raw ([2]; 15 minutes of administration): no | Decreased Raw ([2]; 2 days of administration): yes | Decreased Raw ([2]; 28 days of administration): yes | airway function ([2]; acute, parenteral administration, asthmatic mice): significant reduction in airway function | airway responsiveness to methacholine provocation (Raw) ([2]; asthmatic mice, acute: single intravenous bolus 15 minutes before methacholine): enhanced the airway responsiveness | airway responsiveness to methacholine provocation (Raw) ([2]; asthmatic mice, chronic administration for 28 days): produced a decrease in airway responsiveness, which was more pronounced than that caused by carvedilol treatment | protection from airway hyperresponsiveness ([2]; chronic administration, low and high doses in chow (FIGS. 8D-8G)): providing protection from airway hyperresponsiveness | observed airway adverse effects ([2]; orally in the animal chow at 250 ppm): noticeably wheezing and airway distress | airway hyperresponsiveness ([3]; administered acutely): worsens airway hyperresponsiveness | airway hyperresponsiveness ([3]; administered chronically): prevents airway hyperresponsiveness | ACQ Score Δ ([4]; Asthma Control Questionnaire, absolute change from baseline, per subject): results were mixed | PEFR % Change baseline ([4]; average last 14 days of treatment vs last 14 days of run-in, per subject): essentially no effect | subjects with reduction in airway twitchiness (increased PC20) ([4]; chronic nadolol): 4 of 5 | subjects with PC20 doubling doses within the 1.5 limit ([4]; chronic nadolol, 5 subjects): Two subjects | subjects with increases of doubling doses greater than 1.5 ([4]; chronic nadolol, 5 subjects): 3 subjects | PC20 Doubling Dose ([4]; methacholine PC20 change from baseline at the end of the trial, per subject): more pronounced effect on airway hyper-responsiveness | Puffs/Day Mean Change per Day ([4]; rescue medication use, absolute change from baseline, per subject): results were mixed | Reason for Maximum Tolerated Dose: Blood Pressure ([5]; per subject): 110/68 mm Hg and 91/63 mm Hg | Reason for Maximum Tolerated Dose: FEV1 ([5]; per subject): FEV1 78% predicted; also recorded: FEV1 at 68% predicted | Reason for Maximum Tolerated Dose: Heart Rate ([5]; per subject): Heart Rate 48 bpm | Nadolol Max Tolerated Dose ([5]; per subject (001-005), once daily oral): 40 mg (2×) and 20 mg (2×) and 10 mg | Heart Rate Visit 9 ([5]; per subject, on maximum tolerated dose): 71 bpm and 70 bpm (2×) and 72 bpm and 53 bpm | Heart rate at 4 hrs after administration of dose ([5]; visit 5): 42 bpm | Heart rate at 4 hrs after administration of dose ([5]; visit 6): 48 bpm | baseline airway resistance [6]: same baseline airway resistance as non-drug treated sensitized and allergen-challenged mice
